{"source": "patent US8648071B2", "about": "“Hydrazonamide compounds that modulate Hsp90 activity” (Synta Pharmaceuticals Corp., priority 2008, dated 2014)", "test_system": "Her2", "assay": "Degradation of Her2 in BT-474 cells, Western blot (Method 1)", "format": "cell-based, human", "conditions": "0.5 μM, overnight", "experimental": "Human high-Her2 breast carcinoma BT474 (HTB-20), SK-BR-3 (HTB-30) and MCF-7 breast carcinoma (HTB-22) from American Type Culture Collection, VA, USA were grown in Dulbecco's modified Eagle's medium with 4 mM L-glutamine and antibiotics (100 IU/ml penicillin and 100 μg/ml streptomycine; GibcoBRL). To obtain exponential cell growth, cells were trypsinized, counted and seeded at a cell density of 0.5×10^6 cells/ml regularly, every 3 days. All, experiments were performed on day 1 after cell passage.\nBT-474 cells are treated with 0.5 μM, 2 μM, or 5 μM of 17AAG (a positive control) or 0.5 μM, 2 μM, or 5 μM of a compound of the invention overnight in DMEM medium. After treatment, each cytoplasmic sample is prepared from 1×10^6 cells by incubation of cell lysis buffer (#9803, Cell Signaling Technology) on ice for 10 minutes. The resulting supernatant used as the cytosol fractions is dissolved with sample buffer for SDS-PAGE and run on a SDS-PAGE gel, blotted onto a nitrocellulose membrane by using semi-dry transfer. Non-specific binding to nitrocellulose is blocked with 5% skim milk in TBS with 0.5% Tween at room temperature for 1 hour, then probed with anti-Her2/ErB2 mAb (rabbit IgG, #2242, Cell Signaling) and anti-Tubulin (T9026, Sigma) as housekeeping control protein. […]"}
{"smiles": "C=CCNC1=C2C[C@@H](C)C[C@H](OC)[C@H](O)[C@@H](C)/C=C(\\C)[C@H](OC(N)=O)[C@@H](OC)/C=C\\C=C(/C)C(=O)NC(=CC1=O)C2=O", "note": "[Compound 17AAG, 17-allylamino-17-demethoxygeldanamycin]", "values": [{"measurement": "degradation of Her2", "result": "partial degradation of Her2"}]}
